# In patent US9006451B1, “2-anilinonicotinyl based chalcones useful as potential anticancer agents and process for preparation thereof” (Council of Scientific and Industrial Research, priority 2013, dated 2015):
# Columns and labels:
# Assay type in all cases: cell-based
# M14 = experiment: NCI 60 human tumor cell line screen (SRB): M14; details: M14, Melanoma, 48 hours, read-out: GI50 values (μM conc.)
# Procedure: (§1) The in vitro anticancer activity studies for these chalcone analogues were carried out at the National Cancer Institute, USA.
# (§2) The chalcone compounds have been tested at NCI, USA, against sixty human tumor cell lines derived from nine cancer types (leukemia, non-small cell lung cancer, colon cancer, CNS cancer, melanoma cancer, ovarian cancer, renal cancer, prostate cancer and breast cancer). For these compounds results are expressed as growth inhibition (GI50) values as per NCI protocol.
# (§3) We describe here the development and implementation of a pilot-scale, in vitro, anticancer drug screen utilizing a panel of 60 human tumor cell lines organized into subpanels representing leukemia, melanoma, and cancers of the lung, colon, kidney, ovary, and central nervous system. The ultimate goal of this disease-oriented screen is to facilitate the discovery of new compounds with potential cell line-specific and/or subpanel-specific antitumor activity. In the current screening protocol, each cell line is inoculated onto microtiter plates, then preincubated for 28 hours. Subsequently, test agents are added in five 10-fold dilutions and the culture is incubated for an additional 48 hours. For each test agent, a dose-response profile is generated. End-point determinations of the cell viability or cell growth are performed by in situ fixation of cells, followed by staining with a protein-binding dye, sulforhodamine B (SRB). The SRB binds to the basic amino acids of cellular macromolecules; the solubilized stain is measured spectrophotometrically to determine relative cell growth or viability in treated and untreated cells.
# RXF 393 = experiment: NCI 60 human tumor cell line screen (SRB): RXF 393; details: RXF 393, Renal, 48 hours, read-out: GI50 values (μM conc.)
# Procedure: as §1, §2, §3
# MOLT-4 = experiment: NCI 60 human tumor cell line screen (SRB): MOLT-4; details: MOLT-4, Leukemia, 48 hours, read-out: GI50 values (μM conc.)
# Procedure: as §1, §2, §3
# UO-31 = experiment: NCI 60 human tumor cell line screen (SRB): UO-31; details: UO-31, Renal, 48 hours, read-out: GI50 values (μM conc.)
# Procedure: as §1, §2, §3
# DU-145 = experiment: NCI 60 human tumor cell line screen (SRB): DU-145; details: DU-145, Prostate, 48 hours, read-out: GI50 values (μM conc.)
# Procedure: as §1, §2, §3
# CAKI-1 = experiment: NCI 60 human tumor cell line screen (SRB): CAKI-1; details: CAKI-1, Renal, 48 hours, read-out: GI50 values (μM conc.)
# Procedure: as §1, §2, §3
# MDA-MB-231/ATCC = experiment: NCI 60 human tumor cell line screen (SRB): MDA-MB-231/ATCC; details: Breast, 48 hours, read-out: GI50 values (μM conc.)
# Procedure: as §1, §2, §3
# T-47D = experiment: NCI 60 human tumor cell line screen (SRB): T-47D; details: T47D, Breast, 48 hours, read-out: GI50 values (μM conc.)
# Procedure: as §1, §2, §3
# HOP-62 = experiment: NCI 60 human tumor cell line screen (SRB): HOP-62; details: HOP-62, Non-small cell lung, 48 hours, read-out: GI50 values (μM conc.)
# Procedure: as §1, §2, §3
# HOP-92 = experiment: NCI 60 human tumor cell line screen (SRB): HOP-92; details: HOP-92, Non-small cell lung, 48 hours, read-out: GI50 values (μM conc.)
# Procedure: as §1, §2, §3
# UACC-257 = experiment: NCI 60 human tumor cell line screen (SRB): UACC-257; details: UACC-257, Melanoma, 48 hours, read-out: GI50 values (μM conc.)
# Procedure: as §1, §2, §3
# KM12 = experiment: NCI 60 human tumor cell line screen (SRB): KM12; details: KM12, Colon, 48 hours, read-out: GI50 values (μM conc.)
# Procedure: as §1, §2, §3
# NCI-H226 = experiment: NCI 60 human tumor cell line screen (SRB): NCI-H226; details: NCI-H226, Non-small cell lung, 48 hours, read-out: GI50 values (μM conc.)
# Procedure: as §1, §2, §3
# SR = experiment: NCI 60 human tumor cell line screen (SRB): SR; details: Leukemia, 48 hours, read-out: GI50 values (μM conc.)
# Procedure: as §1, §2, §3
# A498 = experiment: NCI 60 human tumor cell line screen (SRB): A498; details: A498, Renal, 48 hours, read-out: GI50 values (μM conc.)
# Procedure: as §1, §2, §3
# SK-MEL-28 = experiment: NCI 60 human tumor cell line screen (SRB): SK-MEL-28; details: SK-MEL-28, Melanoma, 48 hours, read-out: GI50 values (μM conc.)
# Procedure: as §1, §2, §3
# EKVX = experiment: NCI 60 human tumor cell line screen (SRB): EKVX; details: Non-small cell lung, 48 hours, read-out: GI50 values (μM conc.)
# Procedure: as §1, §2, §3
# PC-3 = experiment: NCI 60 human tumor cell line screen (SRB): PC-3; details: PC-3, Prostate, 48 hours, read-out: GI50 values (μM conc.)
# Procedure: as §1, §2, §3
# IGROV1 = experiment: NCI 60 human tumor cell line screen (SRB): IGROV1; details: IGROV-1, IGROV1, Ovarian, 48 hours, read-out: GI50 values (μM conc.)
# Procedure: as §1, §2, §3
# LOX IMVI = experiment: NCI 60 human tumor cell line screen (SRB): LOX IMVI; details: Melanoma, 48 hours, read-out: GI50 values (μM conc.)
# Procedure: as §1, §2, §3
# MDA-MB-468 = experiment: NCI 60 human tumor cell line screen (SRB): MDA-MB-468; details: MDA-MB-468, Breast, 48 hours, read-out: GI50 values (μM conc.)
# Procedure: as §1, §2, §3
# SNB-19 = experiment: NCI 60 human tumor cell line screen (SRB): SNB-19; details: SNB-19, CNS, 48 hours, read-out: GI50 values (μM conc.)
# Procedure: as §1, §2, §3
# SK-MEL-2 = experiment: NCI 60 human tumor cell line screen (SRB): SK-MEL-2; details: SK-MEL-2, Melanoma, 48 hours, read-out: GI50 values (μM conc.)
# Procedure: as §1, §2, §3
# HT29 = experiment: NCI 60 human tumor cell line screen (SRB): HT29; details: HT-29, HT29, Colon, 48 hours, read-out: GI50 values (μM conc.)
# Procedure: as §1, §2, §3
# BT-549 = experiment: NCI 60 human tumor cell line screen (SRB): BT-549; details: BT-549, Breast, 48 hours, read-out: GI50 values (μM conc.)
# Procedure: as §1, §2, §3
# HCT-15 = experiment: NCI 60 human tumor cell line screen (SRB): HCT-15; details: HCT-15, Colon, 48 hours, read-out: GI50 values (μM conc.)
# Procedure: as §1, §2, §3
# OVCAR-4 = experiment: NCI 60 human tumor cell line screen (SRB): OVCAR-4; details: OVCAR-4, Ovarian, 48 hours, read-out: GI50 values (μM conc.)
# Procedure: as §1, §2, §3
# SK-OV-3 = experiment: NCI 60 human tumor cell line screen (SRB): SK-OV-3; details: SK-OV-3, Ovarian, 48 hours, read-out: GI50 values (μM conc.)
# Procedure: as §1, §2, §3
# NCI-H522 = experiment: NCI 60 human tumor cell line screen (SRB): NCI-H522; details: NCI-H522, Non-small cell lung, 48 hours, read-out: GI50 values (μM conc.)
# Procedure: as §1, §2, §3
smiles,measurement,setting,value
"COc1cc(Nc2ncccc2/C=C/C(=O)c2cc(OC)c(OC)c(OC)c2)cc(OC)c1OC [6v, (E)-1-(3,4,5-Trimethoxyphenyl)-3-(2-(3,4,5-trimethoxyphenylamino)pyridin-3-yl)prop-2-en-1-one]",GI50,M14,8.99 µM
same,GI50,RXF 393,5.22 µM
same,GI50,MOLT-4,6.72 µM
same,GI50,UO-31,5.09 µM
same,GI50,DU-145,6.22 µM
same,GI50,CAKI-1,4.01 µM
same,GI50,MDA-MB-231/ATCC,12.6 µM
same,GI50,T-47D,5.3 µM
same,GI50,HOP-62,12.1 µM
same,GI50,HOP-92,0.94 µM
same,GI50,UACC-257,8.52 µM
same,GI50,KM12,6.5 µM
same,GI50,NCI-H226,10.8 µM
same,GI50,SR,3.6 µM
same,GI50,A498,2.64 µM
same,GI50,SK-MEL-28,5.43 µM
same,GI50,EKVX,7.55 µM
same,GI50,PC-3,7.81 µM
same,GI50,IGROV1,12.6 µM
same,GI50,LOX IMVI,4.51 µM
same,GI50,MDA-MB-468,6.78 µM
same,GI50,SNB-19,6.8 µM
same,GI50,SK-MEL-2,8 µM
same,GI50,HT29,5.51 µM
same,GI50,BT-549,14.3 µM
same,GI50,HCT-15,5.02 µM
same,GI50,OVCAR-4,9.78 µM
same,GI50,SK-OV-3,11.1 µM
same,GI50,NCI-H522,7.44 µM
"COc1ccc(C(=O)/C=C/c2cccnc2Nc2cc(OC)c(OC)c(OC)c2)cc1 [6z, (E)-1-(4-Methoxyphenyl)-3-(2-(3,4,5-trimethoxyphenylamino)pyridin-3-yl)prop-2-en-1-one]",GI50,M14,2.55 µM
same,GI50,RXF 393,1.68 µM
same,GI50,MOLT-4,2.26 µM
same,GI50,UO-31,1.44 µM
same,GI50,DU-145,2.59 µM
same,GI50,CAKI-1,2.26 µM
same,GI50,MDA-MB-231/ATCC,2.15 µM
same,GI50,T-47D,2.04 µM
same,GI50,HOP-62,2.18 µM
same,GI50,HOP-92,2.4 µM
same,GI50,UACC-257,3.63 µM
same,GI50,KM12,0.46 µM
same,GI50,NCI-H226,1.73 µM
same,GI50,SR,0.09 µM
same,GI50,A498,4.28 µM
same,GI50,SK-MEL-28,3.72 µM
same,GI50,EKVX,10.8 µM
same,GI50,PC-3,1.13 µM
same,GI50,IGROV1,4.64 µM
same,GI50,LOX IMVI,1.12 µM
same,GI50,MDA-MB-468,0.77 µM
same,GI50,SNB-19,2.87 µM
same,GI50,SK-MEL-2,7.04 µM
same,GI50,HT29,0.37 µM
same,GI50,BT-549,2.41 µM
same,GI50,HCT-15,0.91 µM
same,GI50,OVCAR-4,1.78 µM
same,GI50,SK-OV-3,3.15 µM
same,GI50,NCI-H522,1.33 µM
"COc1cc(/C=C/C(=O)c2cccnc2Nc2ccc(F)cc2)cc(OC)c1OC [7f, (E)-1-(2-(4-Fluorophenylamino)pyridin-3-yl)-3-(3,4,5-trimethoxyphenyl)prop-2-en-1-one]",GI50,M14,3.19 µM
same,GI50,RXF 393,2.81 µM
same,GI50,MOLT-4,2.75 µM
same,GI50,UO-31,5.62 µM
same,GI50,DU-145,3.32 µM
same,GI50,CAKI-1,3.68 µM
same,GI50,MDA-MB-231/ATCC,3.07 µM
same,GI50,T-47D,3.06 µM
same,GI50,HOP-62,2.9 µM
same,GI50,HOP-92,1.67 µM
same,GI50,UACC-257,2.9 µM
same,GI50,KM12,3.72 µM
same,GI50,NCI-H226,1.79 µM
same,GI50,SR,1.93 µM
same,GI50,A498,2.18 µM
same,GI50,SK-MEL-28,3.22 µM
same,GI50,EKVX,3.94 µM
same,GI50,PC-3,3.95 µM
same,GI50,IGROV1,7.42 µM
same,GI50,LOX IMVI,1.69 µM
same,GI50,MDA-MB-468,1.77 µM
same,GI50,SNB-19,3.73 µM
same,GI50,SK-MEL-2,2.52 µM
same,GI50,HT29,2.75 µM
same,GI50,BT-549,2.7 µM
same,GI50,HCT-15,2.27 µM
same,GI50,OVCAR-4,3.81 µM
same,GI50,SK-OV-3,3.1 µM
same,GI50,NCI-H522,2.69 µM
